Laboratory results from the CheMixHub viscosity set.
± gives the uncertainty stated by the source.

Test: xn = mol fraction of the nth substance listed

CC(C)c1ccccc1 + Cc1ccccc1
Conditions	viscosity [mPa·s]
293.15 K, 101.33 kPa, x2 = 0.2846	0.727 ± 0.015
293.15 K, 101.33 kPa, x2 = 0.5253	0.676 ± 0.01
293.15 K, 101.33 kPa, x2 = 0.6998	0.644 ± 0.008
293.15 K, 101.33 kPa, x2 = 0.856	0.612 ± 0.006
298.15 K, 101.3 kPa, x2 = 0.1169	0.6671 ± 0.0056
298.15 K, 101.3 kPa, x2 = 0.2596	0.643 ± 0.0055
298.15 K, 101.3 kPa, x2 = 0.3951	0.6203 ± 0.0053
298.15 K, 101.3 kPa, x2 = 0.508	0.6016 ± 0.0052
298.15 K, 101.3 kPa, x2 = 0.605	0.5854 ± 0.0051
298.15 K, 101.3 kPa, x2 = 0.7505	0.5615 ± 0.0049
298.15 K, 101.3 kPa, x2 = 0.8459	0.5459 ± 0.0048
298.15 K, 101.3 kPa, x2 = 0.9474	0.5288 ± 0.0047
303.15 K, 101.33 kPa, x2 = 0.2846	0.638 ± 0.013
303.15 K, 101.33 kPa, x2 = 0.5253	0.597 ± 0.009
303.15 K, 101.33 kPa, x2 = 0.6998	0.57 ± 0.007
303.15 K, 101.33 kPa, x2 = 0.856	0.544 ± 0.005
313.15 K, 101.33 kPa, x2 = 0.2846	0.569 ± 0.011
313.15 K, 101.33 kPa, x2 = 0.5253	0.533 ± 0.008
313.15 K, 101.33 kPa, x2 = 0.6998	0.509 ± 0.006
313.15 K, 101.33 kPa, x2 = 0.856	0.485 ± 0.005
323.15 K, 101.33 kPa, x2 = 0.2846	0.507 ± 0.01
323.15 K, 101.33 kPa, x2 = 0.5253	0.477 ± 0.007
323.15 K, 101.33 kPa, x2 = 0.6998	0.458 ± 0.006
323.15 K, 101.33 kPa, x2 = 0.856	0.437 ± 0.005

CCCCOC(C)=O + Cc1ccccc1
viscosity [mPa·s], 101 kPa
Conditions	293.15 K	298.15 K	303.15 K	308.15 K	313.15 K	318.15 K
x1 = 0.0478	–	0.552 ± 0.005	–	0.499 ± 0.004	–	–
x1 = 0.1494	–	0.556 ± 0.005	–	0.503 ± 0.004	–	–
x1 = 0.249	–	0.563 ± 0.005	–	0.509 ± 0.004	–	–
x1 = 0.348	–	0.571 ± 0.005	–	0.515 ± 0.004	–	–
x1 = 0.4469	–	0.581 ± 0.005	–	0.523 ± 0.004	–	–
x1 = 0.501	–	0.587 ± 0.005	–	0.528 ± 0.005	–	–
x1 = 0.5488	–	0.593 ± 0.005	–	0.532 ± 0.005	–	–
x1 = 0.6468	–	0.607 ± 0.005	–	0.543 ± 0.005	–	–
x1 = 0.7365	–	0.621 ± 0.005	–	0.554 ± 0.005	–	–
x1 = 0.8683	–	0.645 ± 0.005	–	0.572 ± 0.005	–	–
x1 = 0.9671	–	0.666 ± 0.005	–	0.588 ± 0.005	–	–
x2 = 0.1024	0.7105 ± 0.0073	0.6642 ± 0.0069	0.6223 ± 0.0066	0.5852 ± 0.0064	0.5502 ± 0.0062	0.5173 ± 0.006
x2 = 0.205	0.6942 ± 0.007	0.6504 ± 0.0067	0.6104 ± 0.0065	0.5742 ± 0.0062	0.5405 ± 0.006	0.5084 ± 0.0058
x2 = 0.3107	0.6786 ± 0.0068	0.6362 ± 0.0065	0.5973 ± 0.0063	0.5624 ± 0.0061	0.5294 ± 0.0059	0.4996 ± 0.0057
x2 = 0.4031	0.6661 ± 0.0066	0.6247 ± 0.0064	0.587 ± 0.0061	0.5526 ± 0.0059	0.5208 ± 0.0058	0.4908 ± 0.0056
x2 = 0.4615	0.6566 ± 0.0065	0.6161 ± 0.0063	0.579 ± 0.0061	0.546 ± 0.0059	0.514 ± 0.0057	0.4858 ± 0.0055
x2 = 0.5069	0.6517 ± 0.0065	0.6115 ± 0.0062	0.5746 ± 0.006	0.5408 ± 0.0058	0.5103 ± 0.0056	0.4814 ± 0.0055
x2 = 0.5564	0.6439 ± 0.0064	0.6045 ± 0.0061	0.5683 ± 0.0059	0.5352 ± 0.0058	0.5051 ± 0.0056	0.4769 ± 0.0054
x2 = 0.614	0.6371 ± 0.0063	0.5984 ± 0.0061	0.5628 ± 0.0059	0.5301 ± 0.0057	0.5003 ± 0.0055	0.4725 ± 0.0054
x2 = 0.7101	0.6252 ± 0.0062	0.5864 ± 0.006	0.5515 ± 0.0058	0.5197 ± 0.0056	0.4913 ± 0.0055	0.4644 ± 0.0053
x2 = 0.8103	0.6123 ± 0.006	0.5753 ± 0.0058	0.5419 ± 0.0057	0.5103 ± 0.0055	0.4833 ± 0.0054	0.4562 ± 0.0052
x2 = 0.908	0.6017 ± 0.006	0.5667 ± 0.0058	0.5337 ± 0.0056	0.5035 ± 0.0054	0.4761 ± 0.0053	0.4496 ± 0.0052

C=COC(C)=O + Cc1ccccc1C
viscosity [mPa·s], 101 kPa
Conditions	x1 = 0.1492	x1 = 0.2538	x1 = 0.3604	x1 = 0.4517	x1 = 0.5641	x1 = 0.6689	x1 = 0.7705	x1 = 0.8616	x1 = 0.9508
303.15 K	0.632 ± 0.008	0.594 ± 0.008	0.558 ± 0.007	0.529 ± 0.007	0.494 ± 0.006	0.463 ± 0.006	0.435 ± 0.006	0.413 ± 0.005	0.394 ± 0.005
313.15 K	0.57 ± 0.007	0.537 ± 0.007	0.505 ± 0.007	0.478 ± 0.006	0.446 ± 0.006	0.417 ± 0.005	0.391 ± 0.005	0.37 ± 0.005	0.353 ± 0.005

CCCCOC(C)=O + Cc1ccccc1C
viscosity [mPa·s], 101 kPa
Conditions	298.15 K	308.15 K
x1 = 0.0481	0.751 ± 0.005	0.652 ± 0.005
x1 = 0.1501	0.735 ± 0.005	0.64 ± 0.005
x1 = 0.2484	0.722 ± 0.005	0.63 ± 0.005
x1 = 0.3482	0.71 ± 0.005	0.621 ± 0.005
x1 = 0.4474	0.7 ± 0.005	0.614 ± 0.005
x1 = 0.5002	0.696 ± 0.005	0.61 ± 0.005
x1 = 0.5477	0.692 ± 0.005	0.607 ± 0.005
x1 = 0.657	0.685 ± 0.005	0.602 ± 0.005
x1 = 0.7456	0.68 ± 0.005	0.599 ± 0.005
x1 = 0.8459	0.677 ± 0.005	0.596 ± 0.005
x1 = 0.9461	0.675 ± 0.005	0.594 ± 0.005

OCCc1ccccc1 + Cc1ccccc1N
viscosity [mPa·s], 100 kPa
Conditions	x2 = 0.0857	x2 = 0.1652	x2 = 0.2724	x2 = 0.3731	x2 = 0.4711	x2 = 0.6147	x2 = 0.7123	x2 = 0.8105	x2 = 0.8904
303.15 K	8.539 ± 0.51	8.086 ± 0.49	7.473 ± 0.45	6.895 ± 0.41	6.332 ± 0.38	5.503 ± 0.33	4.937 ± 0.3	4.366 ± 0.26	3.9 ± 0.23
308.15 K	7.247 ± 0.44	6.868 ± 0.41	6.356 ± 0.38	5.874 ± 0.35	5.402 ± 0.33	4.708 ± 0.28	4.234 ± 0.26	3.755 ± 0.23	3.364 ± 0.2
313.15 K	6.014 ± 0.36	5.714 ± 0.34	5.307 ± 0.32	4.923 ± 0.3	4.548 ± 0.27	3.994 ± 0.24	3.616 ± 0.22	3.234 ± 0.2	2.921 ± 0.18
318.15 K	4.751 ± 0.29	4.532 ± 0.27	4.234 ± 0.26	3.952 ± 0.24	3.676 ± 0.22	3.269 ± 0.2	2.991 ± 0.18	2.708 ± 0.16	2.476 ± 0.15

CCCCCCCC(=O)O + ClC(Cl)(Cl)Cl
298.15 K, 101 kPa
Conditions	viscosity [mPa·s]
x1 = 0.05	1.011 ± 0.027
x1 = 0.11	1.124 ± 0.029
x1 = 0.16	1.248 ± 0.033
x1 = 0.21	1.38 ± 0.036
x1 = 0.42	2.021 ± 0.053
x1 = 0.52	2.406 ± 0.063
x1 = 0.62	2.867 ± 0.075
x1 = 0.81	3.905 ± 0.1

N#CCCl + ClC(Cl)(Cl)Cl
viscosity [mPa·s], 101 kPa
Conditions	293.15 K	298.15 K	303.15 K	313.15 K	323.15 K
x1 = 0.014	0.983 ± 0.026	0.907 ± 0.024	0.844 ± 0.022	0.749 ± 0.02	0.672 ± 0.018
x1 = 0.087	0.939 ± 0.025	0.867 ± 0.023	0.803 ± 0.021	0.71 ± 0.019	0.633 ± 0.017
x1 = 0.222	0.914 ± 0.024	0.841 ± 0.022	0.78 ± 0.02	0.688 ± 0.018	0.615 ± 0.016

ClCCOCCCl + FB(F)F
101 kPa, x2 = 0.0939
Conditions	viscosity [mPa·s]
293.15 K	23.94 ± 0.64
303.15 K	14.59 ± 0.4
313.15 K	9.569 ± 0.26
323.15 K	6.506 ± 0.18

C1COCOC1 + NC=O
viscosity [mPa·s], 101 kPa
Conditions	x2 = 0.6012	x2 = 0.6156	x2 = 0.8658	x2 = 0.8689	x2 = 0.9552	x2 = 0.9555
298.15 K	2.039 ± 0.038	–	3.119 ± 0.042	–	–	3.328 ± 0.039
313.15 K	–	1.581 ± 0.029	–	2.196 ± 0.029	2.366 ± 0.027	–

CC(C)C(C)O (centres undefined) + NCc1ccccc1
viscosity [mPa·s], 101.33 kPa
Conditions	x2 = 0.0999	x2 = 0.2	x2 = 0.3002	x2 = 0.4001	x2 = 0.4997	x2 = 0.5998	x2 = 0.6999	x2 = 0.7997	x2 = 0.9
298.15 K	3.336 ± 0.041	3.109 ± 0.039	2.89 ± 0.036	2.683 ± 0.034	2.49 ± 0.032	2.315 ± 0.029	2.131 ± 0.027	1.96 ± 0.025	1.81 ± 0.023
303.15 K	2.903 ± 0.037	2.663 ± 0.034	2.443 ± 0.031	2.249 ± 0.029	2.084 ± 0.027	1.927 ± 0.025	1.792 ± 0.023	1.673 ± 0.021	1.571 ± 0.02
308.15 K	2.388 ± 0.032	2.184 ± 0.029	2.009 ± 0.027	1.853 ± 0.025	1.724 ± 0.023	1.614 ± 0.021	1.521 ± 0.02	1.449 ± 0.018	1.404 ± 0.017

Clc1ccccc1Cl + Nc1cccc(Cl)c1
viscosity [mPa·s], 100 kPa
Conditions	x2 = 0.1053	x2 = 0.2011	x2 = 0.3045	x2 = 0.4064	x2 = 0.507	x2 = 0.6062	x2 = 0.7041	x2 = 0.8007	x2 = 0.906
303.15 K	1.568 ± 0.012	1.866 ± 0.014	2.184 ± 0.016	2.495 ± 0.018	2.799 ± 0.02	3.097 ± 0.022	3.389 ± 0.024	3.674 ± 0.026	3.983 ± 0.028
308.15 K	1.444 ± 0.012	1.71 ± 0.013	1.995 ± 0.015	2.274 ± 0.017	2.546 ± 0.019	2.812 ± 0.021	3.072 ± 0.023	3.326 ± 0.025	3.6 ± 0.027
313.15 K	1.319 ± 0.011	1.555 ± 0.013	1.807 ± 0.014	2.053 ± 0.016	2.293 ± 0.018	2.527 ± 0.019	2.756 ± 0.021	2.979 ± 0.023	3.22 ± 0.025
318.15 K	1.206 ± 0.011	1.412 ± 0.012	1.629 ± 0.013	1.842 ± 0.015	2.048 ± 0.017	2.25 ± 0.018	2.447 ± 0.02	2.639 ± 0.021	2.845 ± 0.023
